Measurements from ChEMBL document CHEMBL1158948, “[Isolation and synthesis of espintanol, a new antiparasitic monoterpene]” (J Nat Prod, 1991).
Converted amounts (≈) assume the structure as drawn.

Experiments:
Trypanosoma cruzi [1] = test: Antitrypanosomal activity against Trypanosoma cruzi R107 after 48 hrs; type: functional
Leishmania guyanensis = test: Antileishmanial activity against Leishmania (Viannia) guyanensis M4147 after 48 hrs; type: functional
[2] = system: Leishmania mexicana venezuelensis; test: Antileishmanial activity against Leishmania mexicana venezuelensis PM H3 after 48 hrs; type: functional
Trypanosoma cruzi [3] = test: Antitrypanosomal activity against Trypanosoma cruzi C8 CL1 after 48 hrs; type: functional
Trypanosoma cruzi [4] = test: Antitrypanosomal activity against Trypanosoma cruzi MIL4CL10 after 48 hrs; type: functional
Trypanosoma cruzi [5] = test: Antitrypanosomal activity against Trypanosoma cruzi C8CL1 after 48 hrs; type: functional
Trypanosoma cruzi [6] = test: Antitrypanosomal activity against Trypanosoma cruzi 27R27CL1 after 48 hrs; type: functional
Trypanosoma cruzi [7] = test: Antitrypanosomal activity against Trypanosoma cruzi M6241CL6 after 48 hrs; type: functional
Trypanosoma cruzi [8] = test: Antitrypanosomal activity against Trypanosoma cruzi Z2 after 48 hrs; type: functional
Leishmania braziliensis [9] = test: Antileishmanial activity against Leishmania (Viannia) braziliensis 2904 after 48 hrs; type: functional
Leishmania peruviana = test: Antileishmanial activity against Leishmania (Viannia) peruviana PERU after 48 hrs; type: functional
Leishmania aristidesi = test: Antileishmanial activity against Leishmania mexicana […] 6331 after 48 hrs; type: functional
[10] = system: Leishmania donovani donovani; test: Antileishmanial activity against Leishmania donovani donovani HS 70 after 48 hrs; type: functional
Trypanosoma cruzi [11] = test: Antitrypanosomal activity against Trypanosoma cruzi 13379 CL8 after 48 hrs; type: functional
Trypanosoma cruzi [12] = test: Antitrypanosomal activity against Trypanosoma cruzi Z2CL4 after 48 hrs; type: functional
Trypanosoma cruzi [13] = test: Antitrypanosomal activity against Trypanosoma cruzi CL after 48 hrs; type: functional
Leishmania garnhami = test: Antileishmanial activity against Leishmania mexicana garnhami JAP78 after 48 hrs; type: functional
Trypanosoma cruzi [14] = test: Antitrypanosomal activity against Trypanosoma cruzi TeCL2 after 48 hrs; type: functional
Trypanosoma cruzi [15] = test: Antitrypanosomal activity against Trypanosoma cruzi Y after 48 hrs; type: functional
Leishmania amazonensis [16] = test: Antileishmanial activity against Leishmania mexicana amazonensis PH8 after 48 hrs; type: functional
Trypanosoma cruzi [17] = test: Antitrypanosomal activity against Trypanosoma cruzi Z1 after 48 hrs; type: functional
Trypanosoma cruzi [18] = test: Antitrypanosomal activity against Trypanosoma cruzi A99CL7 after 48 hrs; type: functional
Leishmania chagasi [19] = test: Antileishmanial activity against Leishmania donovani chagasi LEM 379 after 48 hrs; type: functional
Trypanosoma cruzi [20] = test: Antitrypanosomal activity against Trypanosoma cruzi A98CL5 after 48 hrs; type: functional
Trypanosoma cruzi [21] = test: Antitrypanosomal activity against Trypanosoma cruzi 13379 CL3 after 48 hrs; type: functional
Trypanosoma cruzi [22] = test: Antitrypanosomal activity against Trypanosoma cruzi Tulahuen after 48 hrs; type: functional
[23] = system: Leishmania mexicana mexicana; test: Antileishmanial activity against Leishmania mexicana mexicana BEL21 after 48 hrs; type: functional
Leishmania chagasi [24] = test: Antileishmanial activity against Leishmania donovani chagasi after 48 hrs; type: functional
Trypanosoma cruzi [25] = test: Antitrypanosomal activity against Trypanosoma cruzi 31R16CL1 after 48 hrs; type: functional
Trypanosoma cruzi [26] = test: Antitrypanosomal activity against Trypanosoma cruzi 13379 CL6 after 48 hrs; type: functional
Trypanosoma cruzi [27] = test: Antitrypanosomal activity against Trypanosoma cruzi 13379 CL5 after 48 hrs; type: functional
Trypanosoma cruzi [28] = test: Antitrypanosomal activity against Trypanosoma cruzi 9280CL1 after 48 hrs; type: functional
Leishmania pifanoi = test: Antileishmanial activity against Leishmania pifanoi LL1 after 48 hrs; type: functional
Leishmania infantum = test: Antileishmanial activity against Leishmania donovani infantum LEM 209 after 48 hrs; type: functional, LEM209
Leishmania amazonensis [29] = test: Antileishmanial activity against Leishmania mexicana amazonensis after 48 hrs; type: functional
Leishmania braziliensis [30] = test: Antileishmanial activity against Leishmania (Viannia) braziliensis after 48 hrs; type: functional
Mus musculus = test: Toxicity in BALB/c mouse at 800 mg/kg, ip after 72 hrs; type: organism-based; parameters: dose 800 mg/kg, route intraperitoneal; settings: in vivo

IC90 (Trypanosoma cruzi [1]) [µg/mL] | IC90 [2] [µg/mL] | IC90 (Trypanosoma cruzi [3]) [µg/mL] | IC90 (Trypanosoma cruzi [4]) [µg/mL] | IC90 (Trypanosoma cruzi [5]) [µg/mL] | IC90 (Trypanosoma cruzi [6]) [µg/mL] | IC90 (Trypanosoma cruzi [7]) [µg/mL] | IC90 (Trypanosoma cruzi [8]) [µg/mL] | IC90 (Leishmania aristidesi) [µg/mL] | IC90 [10] [µg/mL] | IC90 (Trypanosoma cruzi [11]) [µg/mL] | IC90 (Trypanosoma cruzi [12]) [µg/mL] | IC90 (Trypanosoma cruzi [13]) [µg/mL] | IC90 (Trypanosoma cruzi [14]) [µg/mL] | IC90 (Trypanosoma cruzi [15]) [µg/mL] | IC90 (Trypanosoma cruzi [17]) [µg/mL] | IC90 (Trypanosoma cruzi [22]) [µg/mL] | IC90 (Leishmania chagasi [24]) [µg/mL] | IC90 (Leishmania amazonensis [29]) [µg/mL] | IC90 (Leishmania braziliensis [30]) [µg/mL] | Compound | further results
25 (≈ 119 µM) | 50 (≈ 238 µM) | 25 (≈ 119 µM) | 25 (≈ 119 µM) | 25 (≈ 119 µM) | 25 (≈ 119 µM) | > 100 | 50 (≈ 238 µM) | 25 (≈ 119 µM) | 50 (≈ 238 µM) | 50 (≈ 238 µM) | 100 (≈ 476 µM) | > 100 | 25 (≈ 119 µM) | 50 (≈ 238 µM) | 50 (≈ 238 µM) | 25 (≈ 119 µM) | 10 (≈ 47.6 µM) | 25 (≈ 119 µM) | 10 (≈ 47.6 µM) | COc1cc(C)c(O)c(OC)c1C(C)C [ESPINTANOL] | IC90 (Leishmania guyanensis): 25 µg/mL (≈ 119 µM); IC90 (Leishmania braziliensis [9]): 10 µg/mL (≈ 47.6 µM); IC90 (Leishmania peruviana): 25 µg/mL (≈ 119 µM); IC90 (Leishmania garnhami): 25 µg/mL (≈ 119 µM); IC90 (Leishmania amazonensis [16]): 25 µg/mL (≈ 119 µM); IC90 (Trypanosoma cruzi [18]): 25 µg/mL (≈ 119 µM); IC90 (Leishmania chagasi [19]): 25 µg/mL (≈ 119 µM); IC90 (Trypanosoma cruzi [20]): > 100 µg/mL; IC90 (Trypanosoma cruzi [21]): 50 µg/mL (≈ 238 µM); IC90 [23]: 25 µg/mL (≈ 119 µM); IC90 (Trypanosoma cruzi [25]): 50 µg/mL (≈ 238 µM); IC90 (Trypanosoma cruzi [26]): 100 µg/mL (≈ 476 µM); IC90 (Trypanosoma cruzi [27]): 50 µg/mL (≈ 238 µM); IC90 (Trypanosoma cruzi [28]): 50 µg/mL (≈ 238 µM); IC90 (Leishmania pifanoi): 25 µg/mL (≈ 119 µM); IC90 (Leishmania infantum): 25 µg/mL (≈ 119 µM); Activity (Mus musculus): Active
 | 5 (≈ 14.7 µM) |  |  |  |  |  |  | 1 (≈ 2.94 µM) | 1 (≈ 2.94 µM) |  |  |  |  |  |  |  |  |  |  | N=C(N)c1ccc(OCCCCCOc2ccc(C(=N)N)cc2)cc1 [PENTAMIDINE] | IC90 (Leishmania guyanensis): 5 µg/mL (≈ 14.7 µM); IC90 (Leishmania braziliensis [9]): 1 µg/mL (≈ 2.94 µM); IC90 (Leishmania peruviana): 5 µg/mL (≈ 14.7 µM); IC90 (Leishmania garnhami): 1 µg/mL (≈ 2.94 µM); IC90 (Leishmania amazonensis [16]): 1 µg/mL (≈ 2.94 µM); IC90 (Leishmania chagasi [19]): 1 µg/mL (≈ 2.94 µM); IC90 [23]: 1 µg/mL (≈ 2.94 µM); IC90 (Leishmania pifanoi): 1 µg/mL (≈ 2.94 µM); IC90 (Leishmania infantum): 1 µg/mL (≈ 2.94 µM)
 |  |  |  | > 100 | > 100 |  |  |  |  |  |  |  |  |  |  | > 100 | > 100 | > 100 | > 100 | COc1cc(C(C)C)c(OC)cc1C [THYMOQUINOL DIMETHYLETHER] | 
25 (≈ 87 µM) |  | 25 (≈ 87 µM) | 50 (≈ 174 µM) |  | 100 (≈ 348 µM) | 50 (≈ 174 µM) | 25 (≈ 87 µM) |  |  | 50 (≈ 174 µM) | 50 (≈ 174 µM) | 100 (≈ 348 µM) | 25 (≈ 87 µM) | 25 (≈ 87 µM) | 50 (≈ 174 µM) | 25 (≈ 87 µM) |  |  |  | CC1CS(=O)(=O)CCN1/N=C/c1ccc([N+](=O)[O-])o1 (configuration not stated) [NIFURTIMOX] | IC90 (Trypanosoma cruzi [18]): 25 µg/mL (≈ 87 µM); IC90 (Trypanosoma cruzi [20]): 100 µg/mL (≈ 348 µM); IC90 (Trypanosoma cruzi [21]): > 100 µg/mL; IC90 (Trypanosoma cruzi [25]): 100 µg/mL (≈ 348 µM); IC90 (Trypanosoma cruzi [26]): > 100 µg/mL; IC90 (Trypanosoma cruzi [27]): 100 µg/mL (≈ 348 µM); IC90 (Trypanosoma cruzi [28]): 50 µg/mL (≈ 174 µM)
50 (≈ 192 µM) |  | 100 (≈ 384 µM) | 25 (≈ 96.1 µM) |  | 100 (≈ 384 µM) | > 100 | 100 (≈ 384 µM) |  |  | > 100 | 100 (≈ 384 µM) | 100 (≈ 384 µM) | 25 (≈ 96.1 µM) | 25 (≈ 96.1 µM) | 100 (≈ 384 µM) | 50 (≈ 192 µM) |  |  |  | O=C(Cn1ccnc1[N+](=O)[O-])NCc1ccccc1 [BENZNIDAZOLE] | IC90 (Trypanosoma cruzi [18]): 100 µg/mL (≈ 384 µM); IC90 (Trypanosoma cruzi [20]): 100 µg/mL (≈ 384 µM); IC90 (Trypanosoma cruzi [21]): > 100 µg/mL; IC90 (Trypanosoma cruzi [25]): 100 µg/mL (≈ 384 µM); IC90 (Trypanosoma cruzi [26]): > 100 µg/mL; IC90 (Trypanosoma cruzi [27]): 100 µg/mL (≈ 384 µM); IC90 (Trypanosoma cruzi [28]): 50 µg/mL (≈ 192 µM)

Second part, the compound before the results:

Compound | IC90 (Trypanosoma cruzi [1]) [µg/mL] | IC90 [2] [µg/mL] | IC90 (Trypanosoma cruzi [3]) [µg/mL] | IC90 (Trypanosoma cruzi [4]) [µg/mL] | IC90 (Trypanosoma cruzi [5]) [µg/mL] | IC90 (Trypanosoma cruzi [6]) [µg/mL] | IC90 (Trypanosoma cruzi [7]) [µg/mL] | IC90 (Trypanosoma cruzi [8]) [µg/mL] | IC90 (Leishmania aristidesi) [µg/mL] | IC90 [10] [µg/mL] | IC90 (Trypanosoma cruzi [11]) [µg/mL] | IC90 (Trypanosoma cruzi [12]) [µg/mL] | IC90 (Trypanosoma cruzi [13]) [µg/mL] | IC90 (Trypanosoma cruzi [14]) [µg/mL] | IC90 (Trypanosoma cruzi [15]) [µg/mL] | IC90 (Trypanosoma cruzi [17]) [µg/mL] | IC90 (Trypanosoma cruzi [22]) [µg/mL] | IC90 (Leishmania chagasi [24]) [µg/mL] | IC90 (Leishmania amazonensis [29]) [µg/mL] | IC90 (Leishmania braziliensis [30]) [µg/mL] | further results
COc1cc(C(C)C)ccc1C |  |  |  |  | > 100 | > 100 |  |  |  |  |  |  |  |  |  |  | > 100 | 25 (≈ 152 µM) | 25 (≈ 152 µM) | 25 (≈ 152 µM) | 
MEGLUMINE ANTIMONATE |  | > 100 |  |  |  |  |  |  | > 100 | > 100 |  |  |  |  |  |  |  |  |  |  | IC90 (Leishmania chagasi [19]): > 100 µg/mL; IC90 [23]: > 100 µg/mL
COc1cc(C)c(OC)c(OC)c1C(C)C |  |  |  |  | > 100 | > 100 |  |  |  |  |  |  |  |  |  |  | > 100 | > 100 | > 100 | > 100 | 
